What was measured:
[1] = system: anti-lipidic particles antibodies from sera of patients with the antiphospholipid syndrome; assay: Hapten inhibition of anti-lipidic particles antibodies from patients' sera (liposomal-ELISA); type: binding, human; settings: 0.2 μmoles hapten, 30 min at 30° C.
Description: (§1) Costar microtiter plates, with 96 flat-bottom wells with a high lipidic antigens binding property (Costar Co. Cambrige, USA) were coated by the addition to each one of the wells of 100 μl of liposomes made from egg-yolk phosphatidylcholine:phosphatidate (2:1 molar ratio) in Tris-NaCl buffer (10 mM, 1 mM) pH 7, containing 0.1 μmol of phosphatidate, and treated with 5 mM CaCl2 to induce lipidic particles formation.
Aliquots of 100 μl of patients' sera that were analyzed in Examples 1 and 2B were incubated with 100 μl of 0.2 μmoles of glycerolphosphorylcholine for 30 min at 30° C. Later on, blocked patients sera were added to the wells of the microtiter plate and the liposomal-ELISA method was applied as it was described in Example 1. Peroxidase-conjugated goat anti-Fc of human IgG, IgA and IgM antibodies were used as second antibody.

H308 monoclonal antibody = assay: Inhibition of H308 monoclonal antibody by phosphorylated haptens (liposomal-ELISA); type: binding, mouse; settings: 0.2 μmoles of hapten
Description: Studies on inhibition of anti-lipidic particles antibodies were carried out using liposomes as antigens and the antigen-antibody reaction was analyzed by the liposomal-ELISA method, which includes the following steps:
A) A first step of addition and incubation, in which an effective quantity of an antigen suspension is added to each one of the wells of the ELISA microtiter plate. This microtiter plate is selected among those with a high lipidic antigens binding property and said microtiter plate is incubated between 25 to 30° C. for 0.25 to 2 h.
B) A second step of addition and incubation, in which an effective quantity of a blocking solution is added to each one of the wells of the ELISA microtiter plate with a high lipidic antigens binding property, and said microtiter plate being incubated at a temperature between 25 to 30° C. for 0.25 to 2 h.
C) A step of elimination of blocking solution, preferably by suction, avoiding that microtiter plate becomes dry when blocking solution is eliminated, because liposomal antigens can be damaged.
D) A step of inhibition of the antibody porter, in which the antibody porter is incubated with a chemical substance, or hapten, that will inhibit the active site that recognizes the antigen in the antibody porter.
E) A third step of addition and incubation, in which an effective quantity of the antibody porter inhibited by the hapten was quickly added, to avoid that microtiter plate becomes dry, to each one of the wells using an antibody porter dilution from 1:5 to 1:1000 into blocking solution. This microtiter plate being incubated for 0.25 to 2 h at a temperature between 25 to 30° C.
F) A first step of washing, in which the microtiter plate is washed with the blocking solution, preferably repeating 4-times and avoiding that microtiter plate becomes dry when eliminating the blocking solution.
G) A fourth step of addition and incubation, in which an effective quantity of a second antibody is added to each one of the wells of microtiter plate. This plate is incubated in the darkness for 0.25 to 2 h at a temperature between 25 to 30° C. Second antibody is selected preferably among antibodies from a different specie to that of the antibody porter and they can be anti-Fc of human IgG, IgA and IgM or of the animal in study, or antibodies anti-Fc of IgM or of IgG depending on the nature of the monoclonal antibody when this is the antibody porter. Second antibody is used in a final dilution into blocking solution between […] and 1:3500 and it is conjugated to an enzyme preferably to peroxidase.
H) A second step of washing, in which the microtiter plate is washed with the blocking solution, preferably repeating 4-times and avoiding that microtiter plate becomes dry when eliminating the blocking solution.
I) A fifth step of addition and incubation, in which an effective quantity of the peroxidase sustrates is added to each one of the wells and this microtiter plate is incubated for 0.1 to 0.5 h at a temperature between .35 and 40° C., stopping the peroxidase reaction by adding an effective quantity of sulfuric acid.
J) A step of analysis, in which microtiter plate is analyzed using a reading device for ELISA plates, preferably at 492 nm.
In a specific embodiment, the hapten solution is obtained dissolving hapten in a buffer solution at pH between 7.0 and 7.4, in a relationship from 0.1 to 10 mmoles of hapten per liter of buffer solution.
as §1, with “formation. Microtiter plates were incubated at room temperature for 1 h and they were blocked for 1 h at room temperature in a similar way as was described in Example 1. […]” for “formation.”

BALB/c female mice = assay: Treatment of the pathology induced by H308 monoclonal antibody in mice; type: in vivo, mouse
Description: H308 monoclonal antibody was administered by intraperitoneal injection of 1 μg each week during two months to BALB/c female mice, and simultaneously the glycerolphosphorylcholine hapten was administered at 2.5 mg/Kg, of body weight, doses by intravenous injection each 24 hs, for 2-months.
Spermidine was administered, as chlorhydrate, in a dose of 1 mg/Kg, of body weight, by intraperitoneal injection each 24 hs, during two months.

Compound: C[N+](C)(C)CCOP(=O)([O-])OC[C@H](O)CO [glycerolphosphorylcholine]
- inhibition in the immunoreaction of patients sera with lipidic particles in liposomes [1]: 100%
- inhibition of H308 monoclonal antibody (H308 monoclonal antibody): 100%
- inhibition of the development of mice pathology by H308 monoclonal antibody (BALB/c female mice; hapten 2.5 mg/Kg intravenous each 24 hs for 2-months, H308 1 μg i.p. each week): 40%
- therapeutically effective quantity (BALB/c female mice; of body weight, BALB/c female mice given H308): 2.5 mg/kg

From patent US6777193B1, “Methods for diagnostic and/or treatment of antiphospholipids antibodies-related diseases, and devices” (Escuela Nacional de Ciencias Biologicas, del Instituto …, priority 2000, dated 2004)
